# Data reported in US20120100361A1, “ANTISEPTIC COMPOSITION FOR ENGINEERING WOOD PRODUCTION, AND ENGINEERING WOOD” (SDS BIOTECH K.K., priority 2009, published 2012).
# Experiments:
# [1] = Test for miscibility with a phenol resin glue; format: physicochemical; design: key to Phenol resin status after 60 minutes: ∘: No change; x: Obvious increase in the viscosity was seen and it seems impossible to apply the composition onto the veneer sheet; conditions: 10% (w/w) solution added to phenol resin glue Deernol D-117 kneaded product; viscosity change visually observed for 60 minutes
# Method: The following compounds, which are known to have wood preservative activity, are dissolved in methyl ethylene triglycol to reach a concentration of 10% (w/w) to thereby obtain a solution of each of the compounds.
# 1000 g of phenol resin-based glue Deernol D-117 (manufactured by Oshika Corporation), 70 g of wheat flour and 100 g of calcium carbonate were mixed and well kneaded. Each of the solutions of Example 1 and Comparative Example 1 to 25 was added to 17 g of the kneaded product and mixed well together. The viscosity change of the glue was visually observed for 60 minutes. […] Although a number of documents listed as the prior art documents and the like teach that quaternary ammonium compounds can be applied to the glue line treatment, it is clear that those compounds have a problem for practical use (Comparative Examples 3 and 4). On the other hand, it was confirmed that the other compounds including that of Example has no problem from the viewpoint of compatibility.
# Fomitopsis palustris [2] = assay: Test for antiseptic effects of preservative plywood (JIS K1571:2004); format: cell-based; conditions: for average rate of decrease in weight: plywood, urea melamine resin, Fomitopsis palustris
# Method: (§1) 1000 g of urea melamine resin (PWP-60, manufactured by Oshika Corporation) was added to 180 g of wheat flour and fully kneaded to thereby obtain a kneaded product. 8 g of ammonium chloride was added as a hardening agent to the kneaded product, and a solution of each of the compounds of Example 1 and Comparative Example 1, 2 and 5 to 25 was further added thereto so that the final concentrations of the compound in the wood become 150, 100, 50 and 25 g/m^3 and kneaded. 18 g of the above kneaded product was applied onto each of the bonding plane of the three red lauan veneer sheets having an area of 30 x 30 cm and thickness of 0.85 mm/2.4 mm/0.85 mm. After bonding the three sheets to each other, the sheets were subjected to cold pressing at room temperature for 20 minutes and the thermal pressure of 120° C. (10 kgf/cm^2) was applied to the sheets for two minutes to obtain the target plywood. Each of the prepared plywood was processed into the size of 20×20×4.1 mm to serve as a test sample.
# (§2) The samples of the plywood and LVL prepared in Preparation Examples 2 and 3 were evaluated by the test for antiseptic effects for the drug pressure treatment according to JIS K1571:2004. The weather resistance operation and the test method for the antiseptic effect were performed according to the above test method.
# Trametes versicolor [3] = assay: as above; format: cell-based; conditions: plywood, urea melamine resin, Trametes versicolor
# Method: as §1, §2
# Fomitopsis palustris [4] = assay: Test for antiseptic effects of preservative LVL (JIS K1571:2004); format: cell-based; conditions: phenol resin
# Method: (§3) 1000 g of the phenol resin-based glue Deernol D-117 (manufactured by Oshika Corporation), 70 g of wheat flour and 100 g of calcium carbonate were mixed and well kneaded. A solution of each of the compounds of Example 1 and Comparative Example 1, 2 and 5 to 25 was added to the kneaded product so that the final concentrations of the compound in the wood become 150, 100, 50 and 25 g/m^3 and further kneaded. 18 g of the above kneaded product was applied onto each of the surface of glue line of the three Radiata pine veneer sheets having an area of 30 x 30 cm and thickness of 3 mm. After bonding the three sheets to each other, the sheets were subjected to cold pressing at room temperature for 20 minutes and the thermal pressure of 140° C. (10 kgf/cm^2) was applied to the sheets for two minutes to obtain the target LVL. Each of the prepared LVL was processed into the size of 20×20×9 mm to serve as a test sample.
# as §2
# Trametes versicolor [5] = assay: as above; format: cell-based; conditions: phenol resin
# Method: as §3, §2
# fungus cellar soil-bed [6] = assay: Fungus cellar soil-bed test of preservative plywood (JIS K1571:2004); conditions: for Grade average of the decay damage of five test samples: plywood, six months, 25° C., grade 0 sound condition to 5 out of shape due to the decay
# Method: as §1
# The preservative plywood was prepared in the same manner in Preparation Example 2. Each of the prepared plywood was processed into the size of 8.9 x 8.9×100 mm to serve as a test sample.
# (§4) The samples of the plywood and LVL prepared in Preparation Examples 4 and 5 were evaluated by the fungus cellar soil-bed test according to JIS K1571:2004. The weather resistance operation and the test method for the antiseptic effect were performed according to the above test method. The test was carried out for six months setting the test temperature to 25° C. (because the grade average of the decay damage of the non-treated test samples exceeded 2.5 in six months). […] The effect in the glue line treatment was actually investigated with respect to a number of existing antiseptics, and it was confirmed that only epoxyconazole is suitable for the glue line treatment at a low concentration.
# fungus cellar soil-bed [7] = assay: Fungus cellar soil-bed test of preservative LVL (JIS K1571:2004); conditions: 25° C., grade 0 sound condition to 5 out of shape due to the decay
# Method: as §3
# The preservative LVL was prepared in the same manner in Preparation Example 3. Each of the prepared LVL was processed into the size of 9×9×100 mm to serve as a test sample.
# as §4
# [8] = treated amount 25 g/m^3, six months
# [9] = treated amount 50 g/m^3, six months
# [10] = treated amount 100 g/m^3, six months
# [11] = treated amount 150 g/m^3, six months
SMILES,Phenol resin status after 60 minutes [1],average rate of decrease in weight (Fomitopsis palustris [2]; treated amount 25 g/m^3),average rate of decrease in weight (Fomitopsis palustris [2]; treated amount 50 g/m^3),average rate of decrease in weight (Fomitopsis palustris [2]; treated amount 100 g/m^3),average rate of decrease in weight (Fomitopsis palustris [2]; treated amount 150 g/m^3),average rate of decrease in weight (Trametes versicolor [3]; treated amount 25 g/m^3),average rate of decrease in weight (Trametes versicolor [3]; treated amount 50 g/m^3),average rate of decrease in weight (Trametes versicolor [3]; treated amount 100 g/m^3),average rate of decrease in weight (Trametes versicolor [3]; treated amount 150 g/m^3),average rate of decrease in weight (Fomitopsis palustris [4]; treated amount 25 g/m^3),average rate of decrease in weight (Fomitopsis palustris [4]; treated amount 50 g/m^3),average rate of decrease in weight (Fomitopsis palustris [4]; treated amount 100 g/m^3),average rate of decrease in weight (Fomitopsis palustris [4]; treated amount 150 g/m^3),average rate of decrease in weight (Trametes versicolor [5]; treated amount 25 g/m^3),average rate of decrease in weight (Trametes versicolor [5]; treated amount 50 g/m^3),average rate of decrease in weight (Trametes versicolor [5]; treated amount 100 g/m^3),average rate of decrease in weight (Trametes versicolor [5]; treated amount 150 g/m^3),Grade average of the decay damage of five test samples (fungus cellar soil-bed [6]; treated amount 25 g/m^3),Grade average of the decay damage of five test samples (fungus cellar soil-bed [6]; treated amount 50 g/m^3),Grade average of the decay damage of five test samples (fungus cellar soil-bed [6]; treated amount 100 g/m^3),further results
"CCCCCCCCn1sccc1=O [Comparative Example 24, N-octylisothiazolin-3-one]",∘,X (The average rate of decrease in weight was 3% or more.),X (The average rate of decrease in weight was 3% or more.),X (The average rate of decrease in weight was 3% or more.),X (The average rate of decrease in weight was 3% or more.),X (The average rate of decrease in weight was 3% or more.),X (The average rate of decrease in weight was 3% or more.),X (The average rate of decrease in weight was 3% or more.),X (The average rate of decrease in weight was 3% or more.),X (The average rate of decrease in weight was 3% or more.),X (The average rate of decrease in weight was 3% or more.),X (The average rate of decrease in weight was 3% or more.),X (The average rate of decrease in weight was 3% or more.),X (The average rate of decrease in weight was 3% or more.),X (The average rate of decrease in weight was 3% or more.),X (The average rate of decrease in weight was 3% or more.),X (The average rate of decrease in weight was 3% or more.),2.8,2.8,2.8,Grade average of the decay damage of five test samples (fungus cellar soil-bed [6]; treated amount 150 g/m^3): 2.8; Grade average of the decay damage of five test samples (fungus cellar soil-bed [7]; [8]): 3.0; Grade average of the decay damage of five test samples (fungus cellar soil-bed [7]; [9]): 3.4; Grade average of the decay damage of five test samples (fungus cellar soil-bed [7]; [10]): 3.0; Grade average of the decay damage of five test samples (fungus cellar soil-bed [7]; [11]): 3.2
"Fc1ccc([C@]2(Cn3cncn3)O[C@H]2c2ccccc2Cl)cc1 (racemic) [Example 1, Epoxyconazole]",∘,◯ (The average rate of decrease in weight was less than 3%.),◯ (The average rate of decrease in weight was less than 3%.),◯ (The average rate of decrease in weight was less than 3%.),◯ (The average rate of decrease in weight was less than 3%.),◯ (The average rate of decrease in weight was less than 3%.),◯ (The average rate of decrease in weight was less than 3%.),◯ (The average rate of decrease in weight was less than 3%.),◯ (The average rate of decrease in weight was less than 3%.),◯ (The average rate of decrease in weight was less than 3%.),◯ (The average rate of decrease in weight was less than 3%.),◯ (The average rate of decrease in weight was less than 3%.),◯ (The average rate of decrease in weight was less than 3%.),◯ (The average rate of decrease in weight was less than 3%.),◯ (The average rate of decrease in weight was less than 3%.),◯ (The average rate of decrease in weight was less than 3%.),◯ (The average rate of decrease in weight was less than 3%.),0.2,0,0,"amount showing sufficient antiseptic effect (Fomitopsis palustris [2]; glue line method, plywood and LVL, both fungi, summary of Tables 2 and 3): 25 to 50 g/m^3; amount showing sufficient antiseptic effect (fungus cellar soil-bed [6]; fungus cellar soil-bed test, plywood and LVL, text summary of Tables 4 and 5): 25 to 50 g/m^3; Grade average of the decay damage of five test samples (fungus cellar soil-bed [6]; treated amount 150 g/m^3): 0; Grade average of the decay damage of five test samples (fungus cellar soil-bed [7]; [8]): 0.4; Grade average of the decay damage of five test samples (fungus cellar soil-bed [7]; [9]): 0; Grade average of the decay damage of five test samples (fungus cellar soil-bed [7]; [10]): 0; Grade average of the decay damage of five test samples (fungus cellar soil-bed [7]; [11]): 0"
